Data published in US20080160163A1, “Reduction of Digestibility of Phosphorus” (BAYER HEALTHCARE AG, priority 2005, published 2008).

Legend:
[1] = system: adult healthy domestic cats; conditions: 0.3 and 3.0 g per kg of feed for two weeks
Excerpt: Within the context of a larger study, 24 adult healthy domestic cats of both genders, individually fed with a commercially available regular canned diet (‘Petley's Gourmet Supreme Beef Casserole’, PROMEAL (PTY) Ltd., containing 0.19% phosphorus corresponding to 1.13% phosphorus in the dry matter), were randomised to three equal groups of eight animals which were fed for two weeks with dose levels corresponding to 0, 0.3, and 3.0 grams of lanthanum carbonate octahydrate per kg of feed in their daily feed ration.
(§1) During the study the amount of food consumed was recorded daily and the animals were observed daily for the possible occurrence of adverse events. In the faeces collected over a three-day sampling period at the end of the study, the phosphorus levels were measured. On comparing the dietary intake of phosphorus with the excretion of phosphorus in the faeces, the apparent phosphorus digestibility was calculated according to the following equation: […]

[2] = system: adult healthy female beagle dogs; conditions: dogs, 1.75, 5.0 and 17.5 g per kg of feed
Excerpt: A total of twelve adult healthy female beagle dogs were individually fed with a commercially available regular canned feed (‘Eukanuba Adult with much lamb’, IAMs Pet Food Ltd., containing 0.25% of phosphorus corresponding to 1.09% phosphorus in the dry matter). At weekly intervals, their diet was supplemented with increasing amounts of lanthanum carbonate octahydrate, thus resulting in final concentrations of the feed additive of 0, 1.75, 5.0, and 17.5 g of lanthanum carbonate octahydrate per kg of feed.
as §1, with “two-day” for “three-day”

[3] = system: adult healthy domestic cats
Excerpt: Fifteen adult healthy domestic cats of both genders were individually fed with commercially available regular canned diet (Premium Pate rich in lamb, IAMS Pet Food GmbH & Co containing 0.26% of phosphorus corresponding to 1.13% phosphorus in the dry matter). The aim of the study was to assess the palatability and safety of lanthanum carbonate octahydrate especially in high doses. Therefore 10 cats were fed lanthanum carbonate octahydrate in their daily feed ration at increasing doses. The study began with a dose level of about 12-15 g per kg of feed (dry matter). The dose was doubled every two weeks up to a dose level of about 96-120 g per kg of feed (dry matter). Five cats were given the feed without any lanthanum carbonate octahydrate and served as controls.
Palatability was assessed daily by observing the general acceptance of the feed. Tolerability and safety were assessed by measuring the blood serum phosphate levels and body weight at regular intervals as well as by daily observations concerning the health status and the possible occurrence of adverse events.

[4] = up to a dose level of 1 g/kg of body weight (=about 108 mg per kg of dry feed)

## O.O.O.O.O.O.O.O.O=C([O-])[O-].O=C([O-])[O-].O=C([O-])[O-].[La+3].[La+3] [lanthanum carbonate octahydrate]
[1]
  tolerance in the study animals: no negative effect
[1]; FIG. 1.2
  apparent phosphorus digestibility: corresponding decrease
[1]; faeces collected over three days, FIG. 1.1
  phosphorus content in the faeces: dose-dependently increased
[2]
  tolerance in the study animals: no negative effect
[2]; FIG. 2.2
  apparent phosphorus digestibility: corresponding decrease
[2]; increased weekly, faeces collected over two days, FIG. 2.1
  phosphorus content in the faeces: dose-dependently increased
[3]; even in extremely high doses
  tolerance of the study animals: no negative effect
[3]; increasing doses vs control cats
  palatability or acceptance of the feed or its safety compared to the control cats: no difference
[3]; [4]
  adverse events: no limiting adverse events
  body weight: no changes
  serum phosphate levels: no changes
